Data reported in patent US12486301B2, “8-fluoro-4-alkylumbelliferyl α-D-glucopyranoside, biological sterilization indicator including the same and its use in a method of determining efficacy of a sterilization process” (Solventum Intellectual Properties Company, priority 2019, dated 2025).

Assay: Enzyme substrate degradation in culture media at various temperatures (fluorescence)
Type: physicochemical
Settings: 0.3 mg/mL; for MEASURED FLUORESCENCE, RFU 70° C. 15 min: 70° C. dry heat block 15 min; for MEASURED FLUORESCENCE, RFU 100° C. 15 + 15 min: 100° C. 15 min, second time 15 min; for MEASURED FLUORESCENCE, RFU 100° C. 15 min: 100° C. heat block 15 min; for MEASURED FLUORESCENCE, RFU RT 15 min: room temperature (24.5° C.)
Procedure: Culture media was prepared by dissolving 5 g/L peptone C (BD 211921) and 12 g/L phytone peptone (BD BBL 211906) in deionized water. The pH was adjusted with 1 N NaOH or 0.1 N HCl, the media brought to volume, and then filter sterilized with a 0.22 micron PES filter. Stock solutions ([…]) of 8′-fluoro-4′-methylumbelliferyl-α-D-glucopyranoside, 6′-fluoro-4′-methylumbelliferyl-α-D-glucopyranoside, and 4-methylumbelliferyl-α-D-glucopyranoside were prepared in DMSO. The aforementioned substrates were added to culture media at a final concentration of 0.1 mg/ml and media were then 0.22 μm filter sterilized.
(§1) One milliliter of filter-sterilized culture media (pH 6) containing 0.3 mg/ml of 8′-fluoro-4′-methylumbelliferyl-[…]-D-glucopyranoside substrate was transferred to three 1.5 ml microcentrifuge tubes. One of the 1.5 ml tubes was kept at room temperature (24.5° C.). The second tube was placed in a 70° C. dry heat block for 15 min and the third tube was placed in a 100° C. heat block for 15 min. Tubes were kept at room temperature for 30 min following heat exposure, briefly vortexed and centrifuged to collect liquid. One hundred microliters of culture media with substrate from each of the tubes was transferred to two wells (100 microliters per well) of a black 96-well microtiter plate with (NUNC #165301, Thermo Fisher Scientific). The top of the plate was covered with an optically clear sealing film (product #4311971, Applied Biosystems Corporation). Fluorescence readings (360 nm excitation/455 nm emission at 50% gain) were taken from the top of the plate.
(§2) The tube exposed to 100° C. (with 800 ul of remaining media with substrate) was exposed for a second time to 100° C. for 15 min in a dry heat block. One hundred microliters of culture media with substrate from the tube was transferred to two wells (100 microliters per well) of a black 96-well microtiter plate with (NUNC #165301, Thermo Fisher Scientific). The top of the plate was covered with an optically clear sealing film (product #4311971, Applied Biosystems Corporation). Fluorescence readings (360 nm excitation/455 nm emission at 50% gain) were taken from the top of the plate. In Table 9, the mean fluorescence values detected (RFU) for each of the heating conditions are reported.
as §1, with “7)” for “6)”
as §2, with “10,” for “9,”, “reported. […]” for “reported.”

[1] = pH 6 culture media, no spores, 360 nm excitation/455 nm emission

Row | MEASURED FLUORESCENCE, RFU 70° C. 15 min (pH 6 culture media) [RFU] | MEASURED FLUORESCENCE, RFU 100° C. 15 + 15 min (pH 6 culture media) [RFU] | MEASURED FLUORESCENCE, RFU 100° C. 15 min (pH 6 culture media) [RFU] | MEASURED FLUORESCENCE, RFU RT 15 min [1] [RFU] | MEASURED FLUORESCENCE, RFU 70° C. 15 min (pH 7 culture media) [RFU] | MEASURED FLUORESCENCE, RFU 100° C. 15 + 15 min (pH 7 culture media) [RFU] | MEASURED FLUORESCENCE, RFU 100° C. 15 min (pH 7 culture media) [RFU] | MEASURED FLUORESCENCE, RFU RT 15 min (pH 7 culture media) [RFU] | MEASURED FLUORESCENCE, RFU 70° C. 15 min (pH 8 culture media) [RFU] | MEASURED FLUORESCENCE, RFU 100° C. 15 + 15 min (pH 8 culture media) [RFU] | MEASURED FLUORESCENCE, RFU 100° C. 15 min (pH 8 culture media) [RFU] | MEASURED FLUORESCENCE, RFU RT 15 min (pH 8 culture media) [RFU] | MEASURED FLUORESCENCE, RFU 70° C. 15 min (pH 9 culture media) [RFU] | MEASURED FLUORESCENCE, RFU 100° C. 15 + 15 min (pH 9 culture media) [RFU] | MEASURED FLUORESCENCE, RFU 100° C. 15 min (pH 9 culture media) [RFU] | MEASURED FLUORESCENCE, RFU RT 15 min (pH 9 culture media) [RFU] | Compound
1 | 774.5 | 888 | 829 | 751 | 809 | 893.5 | 862 | 671 | 823.5 | 939 | 857.5 | 788.5 | 862.5 | 1099 | 978.5 | 694 | Cc1cc(=O)oc2cc(O[C@H]3O[C@H](CO)[C@@H](O)[C@H](O)[C@H]3O)ccc12 [MUG, 4′-methylumbelliferyl-α-D-glucopyranoside]
2 | 799.5 | 1114.5 | 957.5 | 751.5 | 759.5 | 1529 | 1195 | 740.5 | 832 | 1543 | 1274 | 774 | 905.5 | 1770.5 | 1343.5 | 811.5 | Cc1cc(=O)oc2c(F)c(O[C@H]3O[C@H](CO)[C@@H](O)[C@H](O)[C@H]3O)ccc12 [Example 1, 8′-Fluoro-4′-methylumbelliferyl […]-D-glucopyranoside]
3 | 932.5 | 2005 | 1486.5 | 897.5 | 1012 | 2654.5 | 1690.5 | 924.5 | 1079.5 | 3160.5 | 2121.5 | 983 | 1218 | 3964 | 2728 | 994.5 | Cc1cc(=O)oc2cc(O[C@H]3O[C@H](CO)[C@@H](O)[C@H](O)[C@H]3O)c(F)cc12 [Example 6F-MUG, 6′-Fluoro-4′-methylumbelliferyl […]-D-glucopyranoside]
